Experimental data from ChEMBL document CHEMBL3734705, “Synthesis and in vitro cytotoxicity of novel C-12 substituted-14-deoxy-andrographolide derivatives as potent anti-cancer agents” (2015).

Tests used:
NCI-H226 = assay: Cytotoxicity against human NCI-H226 cells assessed as growth inhibition at 10 uM after 48 hrs by SRB assay; format: functional; details: NCI-H226, 48 h, read-out: GI
[1] = Cytotoxicity against human UACC257 cells assessed as growth inhibition at 10 uM after 48 hrs by SRB assay; format: functional; details: UACC-257, 48 h, read-out: GI
NCI-H522 = assay: Cytotoxicity against human NCI-H522 cells assessed as growth level at 10 uM after 48 hrs by SRB assay; format: functional
MDA-MB-231 = assay: Cytotoxicity against human MDA-MB-231 cells assessed as growth inhibition at 10 uM after 48 hrs by SRB assay; format: functional; details: MDA-MB-231, 48 h, read-out: GI
[2] = Cytotoxicity against human DU145 cells assessed as growth level at 10 uM after 48 hrs by SRB assay; format: functional, DU-145
NCI-H322M = assay: Cytotoxicity against human NCI-H322M cells assessed as growth level at 10 uM after 48 hrs by SRB assay; format: functional
[3] = Cytotoxicity against human OVCAR4 cells assessed as growth level at 10 uM after 48 hrs by SRB assay; format: functional, OVCAR-4
NCI-H23 [4] = assay: Cytotoxicity against human NCI-H23 cells assessed as growth level at 10 uM after 48 hrs by SRB assay; format: functional
SN12C [5] = assay: Cytotoxicity against human SN12C cells assessed as growth level at 10 uM after 48 hrs by SRB assay; format: functional
NCI-H460 = assay: Cytotoxicity against human NCI-H460 cells assessed as growth level at 10 uM after 48 hrs by SRB assay; format: functional
[6] = Cytotoxicity against human Hs578T cells assessed as growth inhibition at 10 uM after 48 hrs by SRB assay; format: functional; details: Hs-578T, read-out: GI
NCI-H23 [7] = assay: Cytotoxicity against human NCI-H23 cells assessed as growth inhibition at 10 uM after 48 hrs by SRB assay; format: functional; details: NCI-H23, 48 h, read-out: GI
[8] = Cytotoxicity against human HCT116 cells assessed as growth level at 10 uM after 48 hrs by SRB assay; format: functional, HCT-116
[9] = Cytotoxicity against human UO31 cells assessed as growth inhibition at 10 uM after 48 hrs by SRB assay; format: functional; details: UO-31, 48 h, read-out: GI
MDA-MB-435 = assay: Cytotoxicity against human MDA-MB-435 cells assessed as growth level at 10 uM after 48 hrs by SRB assay; format: functional
A549 = assay: Cytotoxicity against human A549 cells assessed as growth inhibition at 10 uM after 48 hrs by SRB assay; format: functional; details: A549, 48 h, read-out: GI
MDA-MB-468 [10] = assay: Cytotoxicity against human MDA-MB-468 cells assessed as growth inhibition at 10 uM after 48 hrs by SRB assay; format: functional; details: MDA-MB-468, 48 h, read-out: GI
SK-MEL-5 = assay: Cytotoxicity against human SK-MEL-5 cells assessed as growth level at 10 uM after 48 hrs by SRB assay; format: functional
[11] = Cytotoxicity against human HOP62 cells assessed as growth level at 10 uM after 48 hrs by SRB assay; format: functional, HOP-62
786-0 = assay: Cytotoxicity against human 786-0 cells assessed as growth inhibition at 10 uM after 48 hrs by SRB assay; format: functional; details: 786-0, 48 h, read-out: GI
[12] = Cytotoxicity against human UACC62 cells assessed as growth inhibition at 10 uM after 48 hrs by SRB assay; format: functional; details: UACC-62, 48 h, read-out: GI
[13] = Cytotoxicity against human Hs578T cells assessed as growth level at 10 uM after 48 hrs by SRB assay; format: functional, Hs-578T
[14] = Cytotoxicity against human SKOV3 cells assessed as growth inhibition at 10 uM after 48 hrs by SRB assay; format: functional; details: SK-OV-3, 48 h, read-out: GI
[15] = Cytotoxicity against human UACC257 cells assessed as growth level at 10 uM after 48 hrs by SRB assay; format: functional, UACC-257
[16] = Cytotoxicity against human HOP92 cells assessed as growth inhibition at 10 uM after 48 hrs by SRB assay; format: functional; details: HOP-92, 48 h, read-out: GI
[17] = Cytotoxicity against human HL-60(TB) cells assessed as growth level at 10 uM after 48 hrs by SRB assay; format: functional
[18] = Cytotoxicity against human SW620 cells assessed as growth level at 10 uM after 48 hrs by SRB assay; format: functional, SW-620
[19] = Cytotoxicity against human IGROV1 cells assessed as growth level at 10 uM after 48 hrs by SRB assay; format: functional, IGROV-1
SR [20] = assay: Cytotoxicity against human SR cells assessed as growth level at 10 uM after 48 hrs by SRB assay; format: functional
[21] = Cytotoxicity against human MOLT4 cells assessed as growth level at 10 uM after 48 hrs by SRB assay; format: functional, MOLT-4
[22] = Cytotoxicity against human SW620 cells assessed as growth inhibition at 10 uM after 48 hrs by SRB assay; format: functional; details: SW-620, 48 h, read-out: GI
[23] = Cytotoxicity against human SF295 cells assessed as growth inhibition at 10 uM after 48 hrs by SRB assay; format: functional; details: SF-295, 48 h, read-out: GI
MDA-MB-468 [24] = assay: Cytotoxicity against human MDA-MB-468 cells assessed as growth level at 10 uM after 48 hrs by SRB assay; format: functional
KM12 = assay: Cytotoxicity against human KM12 cells assessed as growth inhibition at 10 uM after 48 hrs by SRB assay; format: functional; details: KM12, 48 h, read-out: GI
[25] = Cytotoxicity against human SF268 cells assessed as growth level at 10 uM after 48 hrs by SRB assay; format: functional, SF-268
U-251 = assay: Cytotoxicity against human U251 cells assessed as growth level at 10 uM after 48 hrs by SRB assay; format: functional
SR [26] = assay: Cytotoxicity against human SR cells assessed as growth inhibition at 10 uM after 48 hrs by SRB assay; format: functional; details: read-out: GI
SN12C [27] = assay: Cytotoxicity against human SN12C cells assessed as growth inhibition at 10 uM after 48 hrs by SRB assay; format: functional; details: read-out: GI
[28] = Cytotoxicity against human LOXIMVI cells assessed as growth inhibition at 10 uM after 48 hrs by SRB assay; format: functional; details: LOX IMVI, read-out: GI
MCF7 = assay: Cytotoxicity against human MCF7 cells assessed as growth level at 10 uM after 48 hrs by SRB assay; format: functional
[29] = Cytotoxicity against human IGROV1 cells assessed as growth inhibition at 10 uM after 48 hrs by SRB assay; format: functional; details: IGROV-1, 48 h, read-out: GI
[30] = Cytotoxicity against human OVCAR8 cells assessed as growth inhibition at 10 uM after 48 hrs by SRB assay; format: functional; details: OVCAR-8, 48 h, read-out: GI
[31] = Cytotoxicity against human NCI-ADR-RES cells assessed as growth inhibition at 10 uM after 48 hrs by SRB assay; format: functional; details: read-out: GI
[32] = Cytotoxicity against human DU145 cells assessed as growth inhibition at 10 uM after 48 hrs by SRB assay; format: functional; details: DU-145, 48 h, read-out: GI

C=C1CC[C@@H]2[C@](C)(COC(C)=O)[C@H](OC(C)=O)CC[C@@]2(C)[C@@H]1CC(NCCCC)C1=CCOC1=O (mixture of isomers)
inhibition of growth at 10 µM (NCI-H226): 24.3%
inhibition of growth at 10 µM [1]: 14.8%
Activity (NCI-H522): 79.13%
inhibition of growth at 10 µM (MDA-MB-231): 20.9%
Activity [2]: 99.18%
Activity (NCI-H322M): 96.22%
Activity [3]: 85.7%
Activity (NCI-H23 [4]): 89.71%
Activity (SN12C [5]): 89.83%
Activity (NCI-H460): 91.62%
inhibition of growth at 10 µM [6]: 2.32%
inhibition of growth at 10 µM (NCI-H23 [7]): 10.3%
Activity [8]: 80.22%
inhibition of growth at 10 µM [9]: 16%
Activity (MDA-MB-435): 88.61%
inhibition of growth at 10 µM (A549): 18.8%
inhibition of growth at 10 µM (MDA-MB-468 [10]): 33.8%
Activity (SK-MEL-5): 76.02%
Activity [11]: 93.96%
inhibition of growth at 10 µM (786-0): 3.93%
inhibition of growth at 10 µM [12]: 27.6%
Activity [13]: 97.68%
inhibition of growth at 10 µM [14]: 7.58%
Activity [15]: 85.16%
inhibition of growth at 10 µM [16]: 46.7%
Activity [17]: 93.82%
Activity [18]: 95.01%
Activity [19]: 80.01%
Activity (SR [20]): 48.54%
Activity [21]: 55.54%
inhibition of growth at 10 µM [22]: 4.99%
inhibition of growth at 10 µM [23]: 5.72%
Activity (MDA-MB-468 [24]): 66.18%
inhibition of growth at 10 µM (KM12): 7.21%
Activity [25]: 76.97%
Activity (U-251): 86.76%
inhibition of growth at 10 µM (SR [26]): 51.5%
inhibition of growth at 10 µM (SN12C [27]): 10.2%
inhibition of growth at 10 µM [28]: 9.61%
Activity (MCF7): 82.86%
inhibition of growth at 10 µM [29]: 20%
inhibition of growth at 10 µM [30]: 10.4%
inhibition of growth at 10 µM [31]: 12.7%
inhibition of growth at 10 µM [32]: 0.82%

C=C1CC[C@@H]2[C@](C)(COC(C)=O)[C@H](OC(C)=O)CC[C@@]2(C)[C@@H]1CC(NCc1ccc(F)cc1)C1=CCOC1=O (mixture of isomers)
inhibition of growth at 10 µM (NCI-H226): 59.9%
inhibition of growth at 10 µM [1]: 54.2%
Activity (NCI-H522): 20.93%
inhibition of growth at 10 µM (MDA-MB-231): 39.1%
Activity [2]: 69.82%
Activity (NCI-H322M): 72.54%
Activity [3]: 30.87%
Activity (NCI-H23 [4]): 57.85%
Activity (SN12C [5]): 46.23%
Activity (NCI-H460): 55.22%
inhibition of growth at 10 µM [6]: 27.5%
inhibition of growth at 10 µM (NCI-H23 [7]): 42.1%
Activity [8]: 33.73%
inhibition of growth at 10 µM [9]: 68.7%
Activity (MDA-MB-435): 32.73%
inhibition of growth at 10 µM (A549): 42.1%
inhibition of growth at 10 µM (MDA-MB-468 [10]): 72.5%
Activity (SK-MEL-5): 11.81%
Activity [11]: 78.73%
inhibition of growth at 10 µM (786-0): 13.2%
inhibition of growth at 10 µM [12]: 67.8%
Activity [13]: 72.47%
inhibition of growth at 10 µM [14]: 5.68%
Activity [15]: 45.84%
inhibition of growth at 10 µM [16]: 81.2%
Activity [17]: -9.52%
Activity [18]: 32.04%
Activity [19]: 48.35%
Activity (SR [20]): 7.69%
Activity [21]: -0.37%
inhibition of growth at 10 µM [22]: 68%
inhibition of growth at 10 µM [23]: 3.87%
Activity (MDA-MB-468 [24]): 27.52%
inhibition of growth at 10 µM (KM12): 53.5%
Activity [25]: 62.59%
Activity (U-251): 48.01%
inhibition of growth at 10 µM (SR [26]): 92.3%
inhibition of growth at 10 µM (SN12C [27]): 53.8%
inhibition of growth at 10 µM [28]: 90.7%
Activity (MCF7): 16.58%
inhibition of growth at 10 µM [29]: 51.6%
inhibition of growth at 10 µM [30]: 81.4%
inhibition of growth at 10 µM [31]: 71.8%
inhibition of growth at 10 µM [32]: 30.2%
